20 molecules from patent publication US12122780B2, “Pyrimidinyl group-containing tricyclic compound serving as c-Met inhibitor” (JIANGSU AOSAIKANG PHARMACEUTICAL CO., LTD., priority 2019, dated 2024) can be followed below.

What is called IC50 is the point on the concentration scale where inhibition reaches its midpoint. Lower therefore signals higher potency.

One assay concerns EBC-1 cells. The experiment in a line: EBC-1 cell proliferation experiment (CellTiter-Glo). To be noted: 3 days. The format is cell-based, human. The protocol: MEM medium, fetal bovine serum, penicillin/streptomycin antibiotics were purchased from Wisent. EBC-1 cell line was purchased from Nanjing COBIO Bioscience Co., LTD. Envision multi-label analyzer (PerkinElmer).
EBC-1 cells were seeded in a white 96-well plate, […] cell suspension per well, which contained 3000 EBC-1 cells. The cell plate was placed in a carbon dioxide incubator for overnight culture.
The compound to be tested was diluted 5-fold to the eighth concentration with a discharge gun, i.e., from 2 mM to […], and double duplicate wells experiment was set. 78 μL of the medium was added to the middle plate, then 2 μL per well of gradient diluted compound was transferred to the corresponding position on the middle plate, then mixed well and 20 μL per well was transferred to the cell plate. The cell plate was cultured in a carbon dioxide incubator for 3 days. Another cell plate was prepared and the signal values were read on the day of dosing as […] to be used in the data analysis. 25 μL of Promega CellTiter-Glo was added to each well of this cell plate, and incubated at room temperature for 10 minutes to stabilize the luminescence signal. Readings were taken using a PerkinElmer Envision multi-label analyzer.
25 μL of Promega CellTiter-Glo reagent was added to each well of this cell plate, and incubated at room temperature for 10 minutes to stabilize the luminescence signal. Readings were taken using a PerkinElmer Envision multi-label analyzer.
Using the equation (Sample-Min)/(Max-Min)*100% to convert the original data to the inhibition rate, the IC50 value can be obtained by curve fitting with four parameters (obtained by “log(inhibitor) vs. response in GraphPad Prism—Variable slope mode).
For orientation: ATP-based viability assays read luminescence as a measure of living cells.

In the next assay the target is c-Met enzyme (Homo sapiens (Human), UniProt P08581). The experiment in a line: c-Met enzyme activity inhibition (Promega c-Met Kinase Enzyme System, ADP-Glo). The format is biochemical. As to conditions: 10 μM ATP, 60 min, 30° C. The protocol: To detect the inhibitory effect of the compounds on c-Met enzyme activity.
Sequence of c-Met enzyme (P08581 956-1390): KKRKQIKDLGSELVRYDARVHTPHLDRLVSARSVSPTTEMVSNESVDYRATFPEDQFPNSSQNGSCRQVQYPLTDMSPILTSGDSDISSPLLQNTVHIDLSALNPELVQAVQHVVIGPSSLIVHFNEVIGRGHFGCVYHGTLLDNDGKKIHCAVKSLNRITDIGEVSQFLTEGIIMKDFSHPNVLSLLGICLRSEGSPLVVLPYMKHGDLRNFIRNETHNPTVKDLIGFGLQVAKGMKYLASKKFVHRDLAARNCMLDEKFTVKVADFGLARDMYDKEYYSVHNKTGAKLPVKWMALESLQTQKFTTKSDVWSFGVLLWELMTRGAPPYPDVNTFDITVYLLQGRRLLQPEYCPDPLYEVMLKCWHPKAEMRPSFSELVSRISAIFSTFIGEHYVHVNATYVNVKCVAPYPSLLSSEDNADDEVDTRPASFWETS
The c-Met Kinase Enzyme System was purchased from Promega. Envision multi-label analyzer (PerkinElmer).
The kinase buffer in the kit was used to dilute the enzyme, substrate, ATP and inhibitor.
The compound to be tested was diluted 5-fold to the eighth concentration with a discharge gun, i.e., from 50 μM to […], with a final DMSO concentration of 5%, and double duplicate wells experiment was set. 1 μL of each concentration gradient of the inhibitor, 2 μL of c-Met enzyme (4 ng), 2 μL of a mixture of the substrate and ATP (10 μM ATP, 0.2 μg/μL poly E4Y1) were added to the microplate, and the final concentration gradient of the compound of 10 μM was diluted to 0.13 nM. The reaction system was placed at 30° C. and the reaction was carried out for 60 minutes. When the reaction was completed, 5 μL of ADP-Glo reagent was added to each well and the reaction was carried out at 30° C. for another 40 minutes, when the reaction was completed, 10 μL of kinase detection reagent was added to each well, then the reaction was carried out at 30° C. for still another 30 minutes, chemiluminescence was read by the PerkinElmer Envision multi-label analyzer with an integration time of 0.5 seconds.
Using the equation (Sample-Min)/(Max-Min)*100% to convert the original data to the inhibition rate, the IC50 value can be obtained by curve fitting with four parameters (obtained by log(inhibitor) vs. response in GraphPad Prism—Variable slope mode).
A general note: ADP-Glo turns the ADP formed in a reaction into a luminescent signal.

Molecules are shown by their SMILES. Structures can show the parent of a compound that is named as a salt.

Regarding `CN(C)CCN1CCC(COc2cnc(-c3cccc(Cn4c(=O)ccn5c6cc(C#N)ccc6nc45)c3)nc2)CC1` [Compound 31], 493 nM corresponded to half-maximal inhibition in the assay on EBC-1 cells (Homo sapiens, EBC-1, 72 h) (IC50).
As to `CN1CCC(COc2cnc(-c3cccc(Cn4c5c(ccc4=O)-c4cc(C#N)ccc4C5(F)F)c3)nc2)CC1` [Formate of compound 1], the IC50 with EBC-1 cells (Homo sapiens, EBC-1, 72 h) was determined as 133 nM; at c-Met enzyme, 42 nM.
Turning to `CN1CCC(COc2cnc(-c3cccc(Cn4c5c(ccc4=O)-c4cc(C#N)ccc4C5=O)c3)nc2)CC1` [Formate of compound 2], the IC50 in the assay with EBC-1 cells (Homo sapiens, EBC-1, 72 h) was 5.79 nM; on c-Met enzyme, 10 nM.
For `CN1CCC(COc2cnc(-c3cccc(Cn4c5c(ccc4=O)-c4cc(F)ccc4C5=O)c3)nc2)CC1` [Formate of compound 3], the IC50 worked out at 32.8 nM with EBC-1 cells (Homo sapiens, EBC-1, 72 h) and 16 nM at c-Met enzyme.
On to `CN1CCC(COc2cnc(-c3cccc(Cn4c5c(ccc4=O)-c4cc(F)ccc4C5(F)F)c3)nc2)CC1` [Formate of compound 4], for which half-maximal inhibition on c-Met enzyme (IC50) was put at 167 nM.
`CN1CCC(COc2cnc(-c3cccc(Cn4c5c(ccc4=O)-c4cc(C#N)ccc4OC5)c3)nc2)CC1` [Formate of compound 5]: the IC50 in the assay on EBC-1 cells (Homo sapiens, EBC-1, 72 h) is 585 nM; on c-Met enzyme it was 131 nM.
In the case of `CN1CCC(COc2cnc(-c3cccc(Cn4c(=O)ccc5c6cc(C#N)ccc6sc54)c3)nc2)CC1` [Hydrochloride of compound 6], the IC50 with EBC-1 cells (Homo sapiens, EBC-1, 72 h) came out at 62.8 nM; at c-Met enzyme it was 24.9 nM.
The like results for `CN1CCC(COc2cnc(-c3cccc(Cn4c(=O)c(F)cc5c6cc(C#N)ccc6sc54)c3)nc2)CC1` [Hydrochloride of compound 8] were, in that order, 36 nM and 21.5 nM.
Consider `CN1CCC(COc2cnc(-c3cccc(Cn4c(=O)ccn5c6ccc(C#N)cc6nc45)c3)nc2)CC1` [Hydrochloride of compound 9], for which the IC50 was found to be 31.8 nM with EBC-1 cells (Homo sapiens, EBC-1, 72 h) and 21.8 nM against c-Met enzyme.
Taken in the same sequence, the figures for `CN1CCC(COc2cnc(-c3cccc(Cn4c(=O)ccn5c6cc(C#N)ccc6cc45)c3)nc2)CC1` [Hydrochloride of compound 10] were 31.6 nM and 15.7 nM.
Regarding `CN1CCC(COc2cnc(-c3cccc(Cn4c(=O)ccn5c6cc(C#N)ccc6nc45)c3)nc2)CC1` [Hydrochloride of compound 11], the IC50 is 6.99 nM in the assay with EBC-1 cells (Homo sapiens, EBC-1, 72 h) and 3.26 nM at c-Met enzyme.
Turning to `CCN1CCC(COc2cnc(-c3cccc(Cn4c5c(ccc4=O)-c4cc(C#N)ccc4C5=O)c3)nc2)CC1` [Hydrochloride of compound 12], the IC50 was 6.66 nM with EBC-1 cells (Homo sapiens, EBC-1, 72 h) and 5.06 nM against c-Met enzyme.
Molecule `CN1CCN(C(=O)Oc2cnc(-c3cccc(Cn4c5c(ccc4=O)-c4cc(C#N)ccc4C5=O)c3)nc2)CC1` [Hydrochloride of compound 20] registered an IC50 against c-Met enzyme of 26 nM.
In the case of `CN1CCC(COc2cnc(-c3cccc(Cn4c(=O)ccn5c6cc(C#N)cnc6nc45)c3)nc2)CC1` [Hydrochloride of compound 32], half-maximal inhibition with EBC-1 cells (Homo sapiens, EBC-1, 72 h) (IC50) was put at 816 nM.
The molecule `CC(C)N1CCC(COc2cnc(-c3cccc(Cn4c(=O)ccn5c6cc(C#N)cnc6nc45)c3)nc2)CC1` [Hydrochloride of compound 33] registered an IC50 in the assay on EBC-1 cells (Homo sapiens, EBC-1, 72 h) of 899 nM. This IC50 and that of the molecule before are within 1.5-fold of each other.
On to `CS(=O)(=O)CCN1CCC(COc2cnc(-c3cccc(Cn4c(=O)ccn5c6cc(C#N)ccc6nc45)c3)nc2)CC1` [Hydrochloride of compound 42], for which inhibition on c-Met enzyme was half-maximal at 15.2 nM (IC50).
On to `CCCN1CCC(COc2cnc(-c3cccc(Cn4c(=O)ccn5c6cc(C#N)ccc6nc45)c3)nc2)CC1` [Hydrochloride of compound 43], for which the 50% inhibitory concentration (IC50) in the assay on EBC-1 cells (Homo sapiens, EBC-1, 72 h) is 7.32 nM. That is a single-digit nanomolar value.
In turn, `N#Cc1ccc2nc3n(Cc4cccc(-c5ncc(OCC6CCN(C7CCC7)CC6)cn5)c4)c(=O)ccn3c2c1` [Hydrochloride of compound 44] yielded an IC50 in the assay on EBC-1 cells of 6.83 nM.
Still for that read-out and setting: the same measure for `N#Cc1ccc2nc3n(Cc4cccc(-c5ncc(OCC6CCN(C7CCC7)CC6)cn5)c4)c(=O)ccn3c2c1` [Hydrochloride of compound 45]: 19.3 nM.
As to `CC(C)N1CC(COc2cnc(-c3cccc(Cn4c(=O)ccn5c6cc(C#N)ccc6nc45)c3)nc2)C1` [Hydrochloride of compound 46], the IC50 with EBC-1 cells (Homo sapiens, EBC-1, 72 h) came out at 12.2 nM.
